In the supplement of paper PMC7806825:
Values belong to the compound of their own block, whether it stands above or below them.

Test system: McpC ligand-binding domain (Salmonella Typhimurium SL1344)
Test: protein melting temperature (Tm) in presence of compound (degrees C); higher = more thermal stabilisation (possible ligand binding)
Details: compound stock concentration: 10-20 mM, 2 uL in 10 uL reaction

SMILES: O=C(O)[C@@H](O)[C@H](O)[C@H](O)[C@@H](O)C(=O)O [Mucic acid]
protein melting temperature (Biolog plate: PM01): 43.7

SMILES: CC(=O)N[C@H]1C(O)O[C@H](CO)[C@H](O)[C@@H]1O (stereo partly drawn) [N-Acetyl-D-Galactosamine]
protein melting temperature (Biolog plate: PM02A): 44.6
protein melting temperature (Biolog plate: PM03B): 44.6

SMILES: CC(=O)N[C@@H](CO)[C@@H](O)[C@H](O)[C@H](O)CO [N-Acetyl-D-Glucosaminitol]
protein melting temperature (Biolog plate: PM02A): 44.1

SMILES: CC(=O)N[C@@H]1C(O)O[C@H](CO)[C@@H](O)[C@@H]1O (stereo partly drawn) [N-Acetyl-D-Mannosamine]
protein melting temperature (Biolog plate: PM01): 44.8
protein melting temperature (Biolog plate: PM03B): 45.5

SMILES: CC(=O)N[C@@H](CS)C(=O)O [N-Acetyl-L-Cysteine]
protein melting temperature (Biolog plate: PM04A): 43.7

SMILES: CC(=O)N[C@H]1[C@H]([C@H](O)[C@H](O)CO)OC(O)(C(=O)O)C[C@@H]1O (stereo partly specified) [N-Acetyl-Neuraminic acid]
protein melting temperature (Biolog plate: PM02A): 44.4

SMILES: O=C(O)CC[C@@H](C(=O)O)N1C(=O)c2ccccc2C1=O [N-Phthaloyl-L-Glutamic acid]
protein melting temperature (Biolog plate: PM03B): 44.9

SMILES: NC(=O)c1cccnc1 [Nicotinamide]
protein melting temperature (Biolog plate: PM05): 43.7

SMILES: O=[N+]([O-])O [Nitrate]
protein melting temperature (Biolog plate: PM03B): 46

SMILES: O=NO [Nitrite]
protein melting temperature (Biolog plate: PM03B): 46

SMILES: N[C@H](Cc1ccc(OP(=O)(O)O)cc1)C(=O)O [O-Phospho-D-Tyrosine]
protein melting temperature (Biolog plate: PM04A): 43.7

SMILES: C[C@@H](OP(=O)(O)O)[C@H](N)C(=O)O [O-Phospho-L-Threonine]
protein melting temperature (Biolog plate: PM04A): 44

SMILES: N[C@@H](Cc1ccc(OP(=O)(O)O)cc1)C(=O)O [O-Phospho-L-Tyrosine]
protein melting temperature (Biolog plate: PM04A): 43.7

SMILES: O=C(O)c1cc(=O)[nH]c(=O)[nH]1 [Orotic acid]
protein melting temperature (Biolog plate: PM05): 43

SMILES: O=C(O)CC(=O)C(=O)O [Oxaloacetic acid]
protein melting temperature (Biolog plate: PM05): 43.8

SMILES: O=C(CO)[C@@H](O)[C@H](O)[C@H](O)CO[C@H]1O[C@H](CO)[C@@H](O)[C@H](O)[C@H]1O [Palatinose]
protein melting temperature (Biolog plate: PM02A): 44

SMILES: O=C1NC(=O)C(=O)N1 [Parabanic acid]
protein melting temperature (Biolog plate: PM03B): 44

SMILES: O=C(O)[C@H]1O[C@@H](O)[C@H](O)[C@@H](O)[C@H]1O [Pectin]
protein melting temperature (Biolog plate: PM02A): 45

SMILES: O=C(O)COP(=O)(O)O [Phospho-Glycolic acid]
protein melting temperature (Biolog plate: PM04A): 43.5

SMILES: CN(CC(=O)O)C(=N)NP(=O)(O)O [Phosphocreatine]
protein melting temperature (Biolog plate: PM04A): 44.3

SMILES: C=C(OP(=O)(O)O)C(=O)O [Phosphoenol Pyruvate]
protein melting temperature (Biolog plate: PM04A): 43.9

SMILES: O=C(O)CP(=O)(O)O [Phosphono Acetic acid]
protein melting temperature (Biolog plate: PM04A): 44

SMILES: CCC(=O)O [Propionic acid]
protein melting temperature (Biolog plate: PM01): 44.9

SMILES: Cc1ncc(CO)c(C=O)c1O [Pyridoxal]
protein melting temperature (Biolog plate: PM05): 43.2

SMILES: O=C(O)c1cc(C(=O)O)c2c(n1)C(=O)C(=O)c1cc(C(=O)O)[nH]c1-2 [Pyrrolo-Quinoline Quinone]
protein melting temperature (Biolog plate: PM05): 43

SMILES: CC(=O)C(=O)O [Pyruvic acid]
protein melting temperature (Biolog plate: PM01): 44.9

SMILES: O=C(O)[C@]1(O)C[C@@H](O)[C@@H](O)[C@H](O)C1 [Quinic acid]
protein melting temperature (Biolog plate: PM02A): 44.2

SMILES: O=C(O)c1cccnc1C(=O)O [Quinolinic acid]
protein melting temperature (Biolog plate: PM05): 43.8

SMILES: Cc1cc2nc3c(=O)[nH]c(=O)nc-3n(C[C@H](O)[C@H](O)[C@H](O)CO)c2cc1C [Riboflavin]
protein melting temperature (Biolog plate: PM05): 43.6

SMILES: OC[C@@]12OC[C@@H](O1)[C@@H](O)[C@@H](O)[C@@H]2O [Sedoheptulosan]
protein melting temperature (Biolog plate: PM02A): 44.3

SMILES: C/C=C/C=C/C(=O)O [Sorbic acid]
protein melting temperature (Biolog plate: PM02A): 44

SMILES: OC[C@H]1O[C@H](OC[C@H]2O[C@H](OC[C@H]3O[C@H](O[C@]4(CO)O[C@H](CO)[C@@H](O)[C@@H]4O)[C@H](O)[C@@H](O)[C@@H]3O)[C@H](O)[C@@H](O)[C@H]2O)[C@H](O)[C@@H](O)[C@H]1O [Stachyose]
protein melting temperature (Biolog plate: PM02A): 44.5

SMILES: C[C@H](CCC(=O)NCCS(=O)(=O)O)[C@H]1CC[C@H]2[C@@H]3[C@H](O)C[C@@H]4C[C@H](O)CC[C@]4(C)[C@H]3C[C@H](O)[C@]12C [Taurocholic acid]
protein melting temperature (Biolog plate: PM04A): 44.2

SMILES: O=S1(=O)CCCC1 [Tetramethylene Sulfone]
protein melting temperature (Biolog plate: PM04A): 44.3

SMILES: O=S(=O)(O)SSS(=O)(=O)O [Tetrathionate]
protein melting temperature (Biolog plate: PM04A): 42.7

Second part, the compound after the results:

protein melting temperature (Biolog plate: PM01): 45
SMILES: COC(=O)CCC(=O)O [Mono-Methylsuccinate]

protein melting temperature (Biolog plate: PM03B): 44.9
SMILES: CCCCCN [N-Amylamine]

protein melting temperature (Biolog plate: PM03B): 45.3
SMILES: CCCCN [N-Butylamine]

protein melting temperature (Biolog plate: PM04A): 43.9
SMILES: N[C@H](COP(=O)(O)O)C(=O)O [O-Phospho-D-Serine]

protein melting temperature (Biolog plate: PM04A): 43.9
SMILES: N[C@@H](COP(=O)(O)O)C(=O)O [O-Phospho-L-Serine]

protein melting temperature (Biolog plate: PM04A): 43.9
SMILES: NCCOP(=O)(O)O [O-Phosphoryl-Ethanolamine]

protein melting temperature (Biolog plate: PM04A): 43.7
SMILES: C[N+](C)(C)CCOP(=O)(O)O [Phosphoryl Choline]

protein melting temperature (Biolog plate: PM02A): 43.7
protein melting temperature (Biolog plate: PM03B): 44
protein melting temperature (Biolog plate: PM05): 44.1
SMILES: NCCCCN [Putrescine]

protein melting temperature (Biolog plate: PM05): 43.9
SMILES: Cc1ncc(CO)c(CN)c1O [Pyridoxamine]

protein melting temperature (Biolog plate: PM05): 43.8
SMILES: Cc1ncc(CO)c(CO)c1O [Pyridoxine]

protein melting temperature (Biolog plate: PM04A): 43.7
SMILES: CSC[C@H](N)C(=O)O [S-Methyl-L-Cysteine]

protein melting temperature (Biolog plate: PM02A): 44.8
SMILES: O=C(O)CCCCCCCCC(=O)O [Sebacic acid]

protein melting temperature (Biolog plate: PM05): 41.1
SMILES: NCCCCNCCCN [Spermidine]

protein melting temperature (Biolog plate: PM05): 43.8
SMILES: NCCCNCCCCNCCCN [Spermine]

protein melting temperature (Biolog plate: PM02A): 43.6
SMILES: NC(=O)CCC(=O)O [Succinamic acid]

protein melting temperature (Biolog plate: PM01): 44.5
SMILES: O=C(O)CCC(=O)O [Succinic acid]

protein melting temperature (Biolog plate: PM04A): 44.2
SMILES: NCCS(=O)(=O)O [Taurine]
